The values that follow come from US11471458B2, “Diacylglycerol acyl transferase 2 inhibitor” (Pfizer Inc., priority 2019, dated 2022).

Data set [1] in a line: Determination of pKa (capillary electrophoresis, Analiza, Inc.). The settings on record: mean. Format: physicochemical.
Data set [2] deals with human hepatocytes. The data set is described as follows: Intrinsic clearance in human hepatocytes (relay method). Format: in vitro ADME. The conditions noted are these: 1 μM, 20 h total incubation, mean +/− standard deviation. On the procedure:
For intrinsic clearance (CLint) measurement, hepatocyte relay method was used (Di, L., et al. 2012, Drug Metab. Dispos., 40, 1860-1865 and Di, L., et al. 2013, Drug Metab. Dispos., 41, 2018-2023). Cryopreserved human hepatocytes (Lot DCM from BioreclamationlVT) were used. Upon thawing, the hepatocytes were resuspended in Williams' medium E (custom formula number 91-5233EA; Gibco, Grand Island, N.Y.) supplemented with Hepes and Na2CO3. […] The plates were incubated at 37° C. with 95% air/5% CO2, 75% relative humidity for 4 h at 150 rpm in a humidified incubator. At time 0 and 4 h, 25 μL of hepatocyte suspension was removed from the incubation and added to 50 μL of ice-cold acetonitrile (containing metoprolol, indomethacin, and terfenadine as internal standards) to quench the reaction. The samples were centrifuged (Eppendorf, Hauppauge, N.Y.) at 3000 rpm (1439×g) for 10 min at room temperature, and 50 μL of supernatant was transferred to a clean plate, dried completely, and reconstituted before liquid chromatography/tandem mass spectrometry (LC-MS/MS) analysis. The remaining hepatocyte suspensions in the incubation plate were centrifuged (3000 rpm, 1439×g, 10 min, room temperature). The supernatant of 300 μL was transferred to a clean 24-well plate and stored at −80° C. until the next relay experiment. For the second relay experiment, the supernatant plates were warmed first to room temperature for 30 minutes, then to 37° C. for 30 min, and hepatocytes were added to the samples to give a final cell density of 0.5 million cells/mL. The plates were incubated at 37° C. for 4 h, sampled, and processed as described above. Five relays were performed to give a total incubation time of 20 h, with sampling points at (0, 4, 8, 12, 16 and 20 h). The concentrations of test compound determined at each time point by the LC-MS/MS analysis were used to calculate the intrinsic clearance.

Data set [3] concerns human hepatocytes. The data set is described as follows: High throughput determination of intrinsic clearance in human hepatocytes. The data set is classed as in vitro ADME. The settings on record: high throughput human hepatocyte assay; 0.5 million cells/mL, 1 μM test compound, 37° C.; mean +/− Std Dev. The protocol: The incubation was carried out at 37° C. […] The samples were centrifuged (Eppendorf, Hauppauge, N.Y.) at 3000 rpm for 5 min at 4° C.

A short description of data set [4]: Intrinsic clearance in human liver microsomes. The data set is classed as in vitro ADME. The conditions noted are these: human liver microsome assay; 1 μM test compound, 0.806 mg/mL protein, NADPH, pH 7.4, 37° C.; mean +/− STD Dev. On the procedure: The incubations were conducted at 37° C. […] (Sorvall RC 3C Plus, Thermo Scientific, Waltham, Mass.).

Bounds are passed on as bounds.

For `CCOc1cccnc1Oc1cncc(-c2ncc(C(=O)NC3(CO)CCOC3)cn2)c1` (single isomer, unassigned) [WO2018033832 Ex. 6b], the “Basic pKa (most basic pKa)” value in data set [1] was found to be 2.4. In the data set on human hepatocytes [2], the “CLint (+/− Std Dev), relay hepatocyte assay” value was 2.9 +/− 0.057 μL/min/million cells. The “CLint (μL/min/10^6 cells) (+/− Std Dev)” value in the data set with human hepatocytes [3] is reported as <3.3 +/− 0.49 μL/min/10^6 cells. In addition, in data set [4], the “CLint (μL/min/mg) (+/− STD Dev)” value was <11 ± 3.5 µL/min/mg.
